Here are results for two molecules from patent publication US20050176685A1 (priority 2002, published 2005).

SMILES strings stand for the structures.

The target of one experiment is T1, vitamin D receptor (Homo sapiens, UniProt P11473).
T1 sequence (P11473 1-427): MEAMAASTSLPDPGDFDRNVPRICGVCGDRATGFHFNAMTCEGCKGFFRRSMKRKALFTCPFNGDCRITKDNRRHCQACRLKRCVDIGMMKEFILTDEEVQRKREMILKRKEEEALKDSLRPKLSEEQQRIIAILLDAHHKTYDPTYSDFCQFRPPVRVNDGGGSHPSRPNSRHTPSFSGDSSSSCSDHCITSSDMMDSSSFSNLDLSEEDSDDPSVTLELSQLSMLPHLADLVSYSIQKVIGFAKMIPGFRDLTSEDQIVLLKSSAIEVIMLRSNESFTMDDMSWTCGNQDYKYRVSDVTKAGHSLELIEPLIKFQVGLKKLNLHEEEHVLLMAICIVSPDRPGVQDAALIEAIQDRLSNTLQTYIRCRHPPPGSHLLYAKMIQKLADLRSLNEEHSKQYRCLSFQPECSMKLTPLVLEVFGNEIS
The note with it: compared with 1α,25-dihydroxy-cholecalciferol; cited from earlier work.

The conditions of experiment [1]: 50 micrograms equivalent to about 70 micrograms (2800 IU) of vitamin D3; cited from earlier work.

With `C=C1CC[C@H](O)C/C1=C/C=C1\CCC[C@]2(C)[C@@H]([C@H](C)CCCC(C)(C)O)CC[C@@H]12` [25-hydroxy-cholecalciferol], at vitamin D receptor, the “Intrinsic activity relative to 1α,25-dihydroxy-cholecalciferol” value is reported as “about 100 fold lower”. Moreover, the “Potency relative to vitamin D3” value in experiment [1] is recorded as “about 1.4 times”.
With `NCCCC(O)(P(=O)(O)O)P(=O)(O)O` [alendronate, 4-Amino-1-hydroxybutylidene-1,1-bisphosphonic acid monosodium trihydrate], the “Progression of vertebral deformity” value (compared to placebo patients) is “statistically significant decrease”. For the same molecule, the “Decrease in the risk of vertebral fractures” value (compared to placebo, statistically significant, patients with fractures) was “at least 40%”. In addition, where the note is “total number of vertebral fractures, compared to placebo”, the “Reduction in vertebral fracture rate per 100 patients” value is on record as “at least 50%”.
